Experiments:
[1] = tested on: human 17073 primary head & neck xenografts; experiment: Antitumor activity and toxicity in SCID mice bearing human 17073 primary head & neck xenografts; assay type: in vivo; details: at MTD
Excerpt: FIG. 2 Comparison of antitumor activity and toxicity (body weight loss) of FL118 with irinotecan in SCID mice bearing human 17073 primary head & neck xenografts: A and B. Antitumor activity and toxicity of FL118 and irinotecan against 17073 tumors. C, D and E. Individual 17073 tumor in response to FL118 and irinotecan. The treatment schedule was weekly×4 as indicated by arrows. The doses for FL118 and irinotecan were their MTD in the weekly×4 schedule.
(§1) Human tumor xenografts were initially established by injecting s.c 1×10^6 cultured cancer cells. The xenografts were then passed several generations by transplanting 40-50 mg non-necrotic tumor tissues via a trocar from the passage tumors. Human primary tumors were initially obtained from cancer patients at Roswell Park Cancer Institute and established in SCID mice. Human tumor xenografts used in this study include human head & neck squamous cell carcinoma FaDu, human primary head & neck tumor 17073, human ileocecal adenocarcinoma HCT-8, human colon cancer SW620 and human primary colon cancer 11124 and 14528. Treatment was initiated 7 days after tumor transplantation when the tumor reaches 200-250 mg, at which the treatment was designated as Day 0. All cancer cells used for tumor establishment were tested for mycoplasma free. The transplantable tumor has similar histological profile of cultured cells.
Two axes (mm) of a tumor (L, longest axis; W, shortest axis) were measured with a Vernier caliper. Tumor weight (mg) was estimated using a formula of “tumor weight=½ (L×W^2)”. […]
(§2) Antitumor activity was assessed by maximum tumor growth inhibition (MTGI), which is the mean tumor weight difference between treated group (MTWTG) and untreated control group (MTWCG) at the same time. The calculated formula is “MTGI=(MTWTG−MTWCG)÷MTWCG×100%”. […] Tumor response was expressed as 1) partial tumor response (PR) when tumor weight was reduced at least 50% initial tumor size on Day 0 and 2) complete tumor response (CR) which was defined as inability to detect tumor via palpitation at the initial tumor-transplanted site. […]

[2] = tested on: human FaDu head and neck tumor xenografts; experiment: Antitumor activity in nude mice bearing human FaDu head and neck tumor xenografts; assay type: in vivo; details: one-time i.p. injection at about MTD (FIG. 1)
Method: (§3) Six to 12-week-old female athymic nude mice (nu/nu, body weight 20-25 g) were purchased from Charles River Laboratories International, Inc. (Wilmington, Mass.) or Harlan Sprague Dawley Inc. (Indianapolis, Ind.). Six to 12-week-old female SCID mice were purchased from Roswell Animal facility (DLAR). Mice were housed at 5 mice per cage with water and food ad libitum. All animal experiments are performed in accordance with our IACUC-approved animal protocol.
FL118 was first dissolved in DMSO at a concentration of 1 mg/ml, and further diluted in a fresh Tween-80/saline solution. The final work solution consists of FL118 (0.05 mg/ml), 75% saline (V/V), 20% Tween-80 (V/V) and 5% DMSO (V/V). […]
(§4) Two axes (mm) of a tumor (L, longest axis; W, shortest axis) were measured with a Vernier caliper. […]
as §2

[3] = tested on: human HCT-8 colon tumor xenografts; experiment: Antitumor activity in nude mice bearing human HCT-8 colon tumor xenografts; assay type: in vivo
Method: as §3
FL118 was first dissolved in DMSO at a concentration of 1 mg/ml, and further diluted in a fresh Tween-80/saline solution. The final work solution consists of FL118 (0.05 mg/ml), 75% saline (V/V), 20% Tween-80 (V/V) and 5% DMSO (V/V). Control solution (placebo or vehicle) is 75% saline, 20% Tween-80 and 5% DMSO without FL118. Other FDA-approved anticancer drugs used in this invention for a comparison were used clinical formulations from the corresponding manufactures.
as §1
The following schedules were used: 1) i.p. daily×2: once a day for consecutive 2 days; 2) i.p. daily×3: once a day for consecutive 3 days; 3) daily×5: once a day for consecutive 5 days (i.p. or p.o.); 4) i.p.×3 (day 0, 2, 4): 3 times on day 0, 2, and 4; 5) i.p. 2 days/week×¾: 2 times a week for 3 or 4 consecutive weeks; 6) weekly×4: once a week for 4 consecutive weeks (i.p. or p.o.); 7) i.p. biweekly×4: once every two weeks for 8 weeks; 8) 2 days/week×4: give 2 times a week for 4 weeks; and 9) i.p.×1: one time drug i.p. injection on Day 0.
Two axes (mm) of a tumor (L, longest axis; W, shortest axis) were measured with a Vernier caliper. Tumor weight (mg) was estimated using a formula of “tumor weight=½ (L×W^2)”. Tumor measurement was taken daily for the first two weeks and/or during the FL118 treatment period (with the exception of weekend) and then three times a week for the following two weeks of post therapy and twice a week thereafter.
Antitumor activity was assessed by maximum tumor growth inhibition (MTGI), which is the mean tumor weight difference between treated group (MTWTG) and untreated control group (MTWCG) at the same time. The calculated formula is “MTGI=(MTWTG−MTWCG)÷MTWCG×100%”. The tumor doubling time (TDT) was defined as the mean time for the tumor reaching twice its initial weight from the time beginning the treatment (Day 0). Tumor response was expressed as 1) partial tumor response (PR) when tumor weight was reduced at least 50% initial tumor size on Day 0 and 2) complete tumor response (CR) which was defined as inability to detect tumor via palpitation at the initial tumor-transplanted site. […]

[4] = irinotecan, stated without source; cited from earlier work
[5] = Solubility testing in DMSO, ethanol, water
[6] = tested on: human tumor xenografts; experiment: Antitumor activity/toxicity in human tumor mouse models (general statements); assay type: in vivo; details: example: SCID mice, primary colon 11124 and 14528, weekly×4 (FIG. 15)
Method: as §3
Human tumor xenografts were initially established by injecting s.c 1×10^6 cultured cancer cells. The xenografts were then passed several generations by transplanting 40-50 mg non-necrotic tumor tissues via a trocar from the passage tumors. […]
as §4, §2

With CCc1c2c(nc3ccc(OC(=O)N4CCC(N5CCCCC5)CC4)cc13)-c1cc3c(c(=O)n1C2)COC(=O)[C@]3(O)CC [Irinotecan, irinotecan] the “body weight loss (toxicity)” value ([1]; weekly×4) was “accumulated body weight loss”, the “tumor relapse after complete response” value ([1]; weekly×4) was “rapid relapse” and the “mice with complete response” value ([1]; weekly×4, 5 mice per group) was 40%. For the same compound, the “antitumor activity compared with FDA-approved drugs” value [2] was “second most effective compound”, the CR ([3]; 100 mg/kg, i.p. weekly × 4) was 0% and the MTGI ([3]; 100 mg/kg, i.p. weekly × 4) was 94.1 ± 3.6%. The PR ([3]; 100 mg/kg, i.p. weekly × 4) was 60%, the TDT ([3]; 100 mg/kg, i.p. weekly × 4) was 32.7 ± 11.5 days and the “antitumor activity compared with FDA-approved drugs” value ([3]; one-time i.p. injection at about MTD (FIG. 1)) was “second most effective compound”. For the same compound, the MTD [4] was 100 to 200 mg/kg.
With CCC1(O)C(=O)OCc2c1cc1n(c2=O)Cc2cc3cc4c(cc3nc2-1)OCO4 (racemic) [FL113, 10H,12H-1,3-Dioxolo[4,5-g]pyrano[3′,4′:6,7]indolizino[1,2-b]quinoline-8,11(7H,10H)-dione, 7-ethyl-7-hydroxy-, (+-)] the solubility in ethanol [5] was “poorly dissolve in ethanol” and the “antitumor activity, comparison of FL118, FL113 and irinotecan” value [6] was “better than irinotecan in most cases”.
